The values that follow come from patent US20250332266A1, “COMPOUNDS FOR THE DEGRADATION OF EGFR KINASE” (BeiGene Switzerland GmbH, priority 2022, published 2025).

Holding throughout (assay type): cell-based
One assay addresses T1, EGFR L858R (BaF3-L858R) (Homo sapiens, UniProt P00533, L858R).
T1 construct: host or cells: BaF3
The assay can be described thus: EGFR degradation, HTRF total-EGFR assay, BaF3-L858R cells. As to conditions: 16 h treatment. As to the method: BaF3-L858R (abbv. L858R) cell were purchased from Kangyuan Bochuang Biotechnology (Beijing) Co., Ltd.
H1975-#8 and BaF3-L858R cells are treated with compounds diluted in 0.1% DMSO cell culture medium on day 2, incubate for 16 h, 37° C., 5% CO2. the final concentration of compounds in all assay starts with 10 uM, 5-fold dilution, total 8 doses were included.
Total-EGFR cellular kit (64NG1PEH) were used for evaluating EGFR degradation.
After 16 h treatment, for H1975-#8 cells, add 100 μL HTRF 1× lysis buffer to each well; for BaF3-L858R cells, add 20 μL 4× lysis buffer to each well; seal the plate and incubate 1 hour at room temperature on a plate shaker; Once the cells are lysed, 16 μL of cell lysate are transferred to a PE 384-well HTRF detection plate; 4 μL of pre-mixed HTRF antibodies are added to each well; cover the plate with a plate sealer, spin 1000 rpm for 1 min, incubate overnight at room temperature; read on BMG PheraStar with HTRF protocol (337 nm-665 nm-620 nm).
The inhibition (degradation) percentage of the compound was calculated by the following equation:
Inhibition percentage of Compound=100−100×(Signal−low control)/(High control−low control), wherein signal=each test compound group
High control=Cell group with added DMSO and without compound, indicating microplate readings without EGFR degradation.
Imax (Dmax) is the maximum percentage of inhibition (degradation).
The IC50 (DC50) value of a compound can be obtained by fitting the following equation
Wherein, X and Y are known values, and IC50, Hillslope, Top and Bottom are the parameters obtained by fitting with software. Y is the inhibition percentage (calculated from the equation), X is the concentration of the compound; IC50 is the concentration of the compound when the 50% inhibition is reached. The smaller the IC50 value is, the stronger the inhibitory ability of the compound is. Vice versa, the higher the IC50 value is, the weaker the ability the inhibitory ability of the compound is; Hillslope represents the slope of the fitted curve, generally around 1*; Bottom represents the minimum value of the curve obtained by data fitting, which is generally 0%±20%; Top represents the maximum value of the curve obtained by data fitting, which is generally 100%±20%. The experimental data were fitted by calculating and analyzing with Dotmatics data analysis software.
(In general: TR-FRET usually uses a lanthanide donor and a delayed reading to cut background.)

Assay [1] deals with T2, EGFR L858R/T790M/C797S (H1975-clone #25) (Homo sapiens, UniProt P00533, C797S/L858R/T790M).
T2 construct: expressed in transfected cells; host or cells: H1975 (clone #25), lentiviral transduction, endogenous EGFR knocked out
T2 sequence (P00533 25-1210 T790M/C797S/L858R): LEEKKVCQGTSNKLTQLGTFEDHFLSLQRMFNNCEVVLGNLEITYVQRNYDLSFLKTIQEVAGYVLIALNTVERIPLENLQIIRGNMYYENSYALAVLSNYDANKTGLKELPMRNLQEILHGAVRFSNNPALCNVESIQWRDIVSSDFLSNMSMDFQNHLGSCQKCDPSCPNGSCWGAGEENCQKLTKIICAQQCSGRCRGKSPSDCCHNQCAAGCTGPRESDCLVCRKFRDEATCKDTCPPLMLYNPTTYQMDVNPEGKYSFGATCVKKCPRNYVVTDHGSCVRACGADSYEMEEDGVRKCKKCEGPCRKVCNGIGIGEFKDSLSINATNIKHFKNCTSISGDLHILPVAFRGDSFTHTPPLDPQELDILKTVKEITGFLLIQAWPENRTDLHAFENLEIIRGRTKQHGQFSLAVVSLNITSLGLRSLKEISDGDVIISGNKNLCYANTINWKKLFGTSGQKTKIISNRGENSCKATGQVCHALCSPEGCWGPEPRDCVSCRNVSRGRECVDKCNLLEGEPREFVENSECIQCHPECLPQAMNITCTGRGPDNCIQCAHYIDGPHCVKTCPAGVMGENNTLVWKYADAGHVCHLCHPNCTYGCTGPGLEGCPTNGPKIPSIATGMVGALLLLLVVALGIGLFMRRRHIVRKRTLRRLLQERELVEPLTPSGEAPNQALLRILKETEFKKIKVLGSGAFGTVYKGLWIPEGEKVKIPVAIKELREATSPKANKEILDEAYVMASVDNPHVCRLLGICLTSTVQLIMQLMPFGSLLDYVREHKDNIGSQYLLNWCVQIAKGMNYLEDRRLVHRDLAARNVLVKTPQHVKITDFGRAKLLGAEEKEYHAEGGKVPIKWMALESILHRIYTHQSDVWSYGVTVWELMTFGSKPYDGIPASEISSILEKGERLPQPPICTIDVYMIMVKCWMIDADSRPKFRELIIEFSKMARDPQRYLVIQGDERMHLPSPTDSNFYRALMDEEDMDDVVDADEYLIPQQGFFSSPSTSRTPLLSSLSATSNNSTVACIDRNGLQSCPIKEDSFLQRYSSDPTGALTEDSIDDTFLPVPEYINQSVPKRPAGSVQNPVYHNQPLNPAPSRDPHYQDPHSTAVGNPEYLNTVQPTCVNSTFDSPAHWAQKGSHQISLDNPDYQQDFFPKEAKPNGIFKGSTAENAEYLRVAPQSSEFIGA
The assay can be described thus: EGFR degradation, HTRF total-EGFR assay, H1975-clone #25 (LTC). Conditions: H1975-clone #25 L858R/T790M/C797S, 16 h treatment. An outline of the steps:
(§1)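 H1975 clones with endogenous EGFR knocked out and homozygous exogenous EGFR mutants (#28 Del19/T790M/C797S; #25 L858R/T790M/C797S) treated 16 h at 37 °C, 8 doses, 5-fold from 10 μM, 0.2% DMSO. Total EGFR measured by HTRF on lysates, normalised to DMSO controls; DC50 and Dmax from curve fit.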

Assay [2] deals with EGFR Del19/T790M/C797S (H1975-clone #28) (Homo sapiens, UniProt P00533, T790M/C797S, form not given). The assay can be described thus: EGFR degradation, HTRF total-EGFR assay, H1975-clone #28 (DTC). As to conditions: H1975-clone #28 Del19/T790M/C797S, 16 h treatment. The gist of the method: as §1
EGFR Del19/T790M/C797S (H1975-clone #28), sequence (P00533 with tags, fused parts or gaps DEL746-750/T790M/C797S, form open): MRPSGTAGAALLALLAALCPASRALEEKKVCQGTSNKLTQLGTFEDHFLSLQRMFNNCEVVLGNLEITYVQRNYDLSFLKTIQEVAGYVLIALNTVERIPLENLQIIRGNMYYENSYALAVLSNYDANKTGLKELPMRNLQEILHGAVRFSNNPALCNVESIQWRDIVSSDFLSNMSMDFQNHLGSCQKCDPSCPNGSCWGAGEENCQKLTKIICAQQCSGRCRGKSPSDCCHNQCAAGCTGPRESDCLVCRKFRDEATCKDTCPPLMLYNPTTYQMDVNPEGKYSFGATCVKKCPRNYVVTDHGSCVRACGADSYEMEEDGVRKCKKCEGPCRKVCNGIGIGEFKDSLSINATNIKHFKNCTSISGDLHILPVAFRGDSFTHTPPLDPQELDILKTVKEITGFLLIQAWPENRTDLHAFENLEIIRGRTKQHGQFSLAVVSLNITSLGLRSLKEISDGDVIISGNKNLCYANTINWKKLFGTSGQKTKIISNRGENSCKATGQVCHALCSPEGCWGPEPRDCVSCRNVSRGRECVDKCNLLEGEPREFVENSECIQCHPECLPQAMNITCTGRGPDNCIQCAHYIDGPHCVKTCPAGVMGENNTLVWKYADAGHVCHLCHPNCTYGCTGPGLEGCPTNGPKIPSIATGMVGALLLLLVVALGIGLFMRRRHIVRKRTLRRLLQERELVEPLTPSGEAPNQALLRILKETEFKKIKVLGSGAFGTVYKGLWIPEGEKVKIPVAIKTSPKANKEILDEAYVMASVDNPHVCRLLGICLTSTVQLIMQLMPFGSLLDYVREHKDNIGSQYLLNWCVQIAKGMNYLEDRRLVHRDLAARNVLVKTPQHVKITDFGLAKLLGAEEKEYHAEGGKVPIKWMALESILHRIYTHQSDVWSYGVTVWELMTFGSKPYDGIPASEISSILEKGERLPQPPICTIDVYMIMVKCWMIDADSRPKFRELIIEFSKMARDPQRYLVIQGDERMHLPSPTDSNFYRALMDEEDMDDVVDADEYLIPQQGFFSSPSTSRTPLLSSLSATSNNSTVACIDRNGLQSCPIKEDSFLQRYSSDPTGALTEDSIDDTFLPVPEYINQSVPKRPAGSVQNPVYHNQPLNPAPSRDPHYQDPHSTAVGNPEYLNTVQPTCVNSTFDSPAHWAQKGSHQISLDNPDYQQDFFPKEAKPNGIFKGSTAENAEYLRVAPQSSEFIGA

For orientation: DC50 means the midpoint of the concentration-degradation curve. Low readings indicate degradation at low concentration, high ones degradation only at high concentration. For orientation: Dmax means the largest share of the target that was removed. Read a high Dmax as a fuller loss of target.

T1 sequence (P00533 25-1210 L858R): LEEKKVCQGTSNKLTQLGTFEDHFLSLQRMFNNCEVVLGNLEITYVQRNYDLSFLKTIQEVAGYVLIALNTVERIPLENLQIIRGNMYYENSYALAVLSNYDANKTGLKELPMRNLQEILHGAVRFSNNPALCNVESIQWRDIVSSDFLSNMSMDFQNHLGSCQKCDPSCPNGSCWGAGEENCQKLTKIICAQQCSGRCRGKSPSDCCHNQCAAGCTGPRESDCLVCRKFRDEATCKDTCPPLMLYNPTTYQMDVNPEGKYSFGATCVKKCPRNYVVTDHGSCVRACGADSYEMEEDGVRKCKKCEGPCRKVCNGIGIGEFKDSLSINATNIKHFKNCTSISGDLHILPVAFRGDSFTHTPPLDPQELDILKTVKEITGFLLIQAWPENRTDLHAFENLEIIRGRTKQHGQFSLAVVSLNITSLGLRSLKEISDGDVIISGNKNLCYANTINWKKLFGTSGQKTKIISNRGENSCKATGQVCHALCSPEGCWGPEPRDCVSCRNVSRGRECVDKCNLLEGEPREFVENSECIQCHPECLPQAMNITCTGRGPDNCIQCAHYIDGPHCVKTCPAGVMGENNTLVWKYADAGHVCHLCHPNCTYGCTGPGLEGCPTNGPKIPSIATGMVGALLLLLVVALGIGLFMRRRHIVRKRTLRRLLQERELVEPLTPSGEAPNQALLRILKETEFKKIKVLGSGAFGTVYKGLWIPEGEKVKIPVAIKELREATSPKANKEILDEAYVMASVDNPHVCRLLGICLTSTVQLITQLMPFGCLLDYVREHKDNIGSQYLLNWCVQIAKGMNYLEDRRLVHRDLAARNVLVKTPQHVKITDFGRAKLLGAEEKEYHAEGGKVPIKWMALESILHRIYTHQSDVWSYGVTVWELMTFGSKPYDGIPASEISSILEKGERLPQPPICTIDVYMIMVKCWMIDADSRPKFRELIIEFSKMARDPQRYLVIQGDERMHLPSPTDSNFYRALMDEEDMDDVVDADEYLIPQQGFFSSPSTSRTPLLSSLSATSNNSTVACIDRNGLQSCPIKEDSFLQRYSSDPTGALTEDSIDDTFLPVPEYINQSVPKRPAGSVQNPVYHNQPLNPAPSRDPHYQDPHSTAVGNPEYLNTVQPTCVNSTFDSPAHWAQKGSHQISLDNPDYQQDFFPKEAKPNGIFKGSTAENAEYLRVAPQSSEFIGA

`Cc1cc2cc(n1)-c1cnn(C)c1OC[C@H]1C[C@@H](CN3/C(=N/C2=O)Nc2ccc(N4CCN(C5CN(C6CCN(c7cc(F)c([C@H]8CCC(=O)NC8=O)c(F)c7)CC6)C5)C[C@H]4C)cc23)C1` [Example 148, (R)-3-(4-(4-(3-((R)-4-((7^1s,7^3S,E)-1^1,2^6-dimethyl-3-oxo-5^2,5^3-dihydro-1^1H,5^1H-9-oxa-4-aza-5(2,1)-benzo[d]imidazola-2(2,4)-pyridina-1(4,5)-pyrazola-7(1,3)-cyclobutanacyclononaphane-5^6-yl)-3-methylpiperazin-1-yl)azetidin-1-yl)piperidin-1-yl)-2,6-difluorophenyl)piperidine-2,6-dione]: at EGFR L858R (BaF3-L858R), the DC50 worked out at 3 nM and the Dmax amounted to 80%.
On EGFR L858R (BaF3-L858R), `CCc1cc(C2CCC(=O)NC2=O)ncc1N1CCC(N2CC(N3CCN(c4ccc5c(c4)N4C[C@H]6C[C@@H](COc7c(cnn7C)-c7cc(cc(C)n7)C(=O)/N=C/4N5)C6)CC3)C2)CC1` (stereo partly shown) [Example 143, 3-(5-(4-(3-(4-((7^1s,7^3s,E)-1^1,2^6-dimethyl-3-oxo-5^2,5^3-dihydro-1^1H,5^1H-9-oxa-4-aza-5(2,1)-benzo[d]imidazola-2(2,4)-pyridina-1(4,5)-pyrazola-7(1,3)-cyclobutanacyclononaphane-5^6-yl)piperazin-1-yl)azetidin-1-yl)piperidin-1-yl)-4-ethylpyridin-2-yl)piperidine-2,6-dione] registered a DC50 of 8.5 nM and a Dmax of 75.8%.
On to `COC[C@H]1CN(c2ccc3c(c2)N2C[C@H]4C[C@@H](COc5c(cnn5C)-c5cc(cc(C)n5)C(=O)/N=C/2N3)C4)CCN1C1CCN(c2ccc(C3CCC(=O)NC3=O)nc2C)CC1` (stereo partly drawn) [Example 24, 3-(5-(4-((R)-4-((7^1s,7^3S,E)-1^1,2^6-dimethyl-3-oxo-5^2,5^3-dihydro-1^1H,5^1H-9-oxa-4-aza-5(2,1)-benzo[d]imidazola-2(2,4)-pyridina-1(4,5)-pyrazola-7(1,3)-cyclobutanacyclononaphane-5^6-yl)-2-(methoxymethyl)piperazin-1-yl)piperidin-1-yl)-6-methylpyridin-2-yl)piperidine-2,6-dione], for which, in assay [1], the “Degradation H1975 # 25-LTC” value stood at 91.7. Also, the “Degradation H1975 # 28 DTC” value in assay [2] came to 88.0.
`Cc1cc2cc(n1)-c1cnn(C)c1OC[C@H]1C[C@@H](CN3/C(=N/C2=O)Nc2ccc(N4CCC5(CCN(C6CCN(c7cc(F)c([C@H]8CCC(=O)NC8=O)c(F)c7)CC6)C5)C4)cc23)C1` (stereo partly drawn) [Example 129, (3R)-3-(4-(4-(7-((7^1s,7^3s,E)-1^1,2^6-dimethyl-3-oxo-5^2,5^3-dihydro-1^1H,5^1H-9-oxa-4-aza-5(2,1)-benzo[d]imidazola-2(2,4)-pyridina-1(4,5)-pyrazola-7(1,3)-cyclobutanacyclononaphane-5^6-yl)-2,7-diazaspiro[4.4]nonan-2-yl)piperidin-1-yl)-2,6-difluorophenyl)piperidine-2,6-dione]: the “Degradation H1975 # 25-LTC” value in assay [1] stood at 72.7. In assay [2], the “Degradation H1975 # 28 DTC” value is reported as 73.2.
The corresponding values for `Cc1cc2cc(n1)-c1cnn(C)c1OC[C@H]1C[C@@H](CN3/C(=N/C2=O)Nc2ccc(CN4CCN(C(=O)C5CN(c6cc(F)c([C@H]7CCC(=O)NC7=O)c(F)c6)C5)CC4)cc23)C1` [Example 3, (R)-3-(4-(3-(4-(((7^1s,7^3s,E)-1^1,2^6-dimethyl-3-oxo-5^2,5^3-dihydro-1^1H,5^1H-9-oxa-4-aza-5(2,1)-benzo[d]imidazola-2(2,4)-pyridina-1(4,5)-pyrazola-7(1,3)-cyclobutanacyclononaphane-5^6-yl)methyl)piperazine-1-carbonyl)azetidin-1-yl)-2,6-difluorophenyl)piperidine-2,6-dione] are 85.6 and 86.7.
For `Cc1cc2cc(n1)-c1cnn(C)c1OC[C@H]1C[C@@H](CN3/C(=N/C2=O)Nc2ccc(N4CCC(N5CCN(c6ccc(C7CCC(=O)NC7=O)nc6C)C[C@@H]5C)CC4)cc23)C1` (stereo partly drawn) [Example 44, 3-(5-((S)-4-(1-((7^1s,7^3R,E)-1^1,2^6-dimethyl-3-oxo-5^2,5^3-dihydro-1^1H,5^1H-9-oxa-4-aza-5(2,1)-benzo[d]imidazola-2(2,4)-pyridina-1(4,5)-pyrazola-7(1,3)-cyclobutanacyclononaphane-5^6-yl)piperidin-4-yl)-3-methylpiperazin-1-yl)-6-methylpyridin-2-yl)piperidine-2,6-dione] the same measures were 91.3 and 80.7.
For `Cc1cc2cc(n1)-c1cnn(C)c1OC[C@H]1C[C@@H](CN3/C(=N/C2=O)Nc2ccc(N4CCN([C@@H]5CCN(c6cnc(C7CCC(=O)NC7=O)cc6C)C[C@@H]5F)CC4)cc23)C1` (stereo partly drawn) [Example 133, 3-(5-((3S,4R)-4-(4-((7^1s,7^3S,E)-1^1,2^6-dimethyl-3-oxo-5^2,5^3-dihydro-1^1H,5^1H-9-oxa-4-aza-5(2,1)-benzo[d]imidazola-2(2,4)-pyridina-1(4,5)-pyrazola-7(1,3)-cyclobutanacyclononaphane-5^6-yl)piperazin-1-yl)-3-fluoropiperidin-1-yl)-4-methylpyridin 2-yl)piperidine-2,6-dione] the same measures were 92.1 and 88.8.
On to `Cc1cc2cc(n1)-c1cnn(C)c1OC[C@H]1C[C@@H](CN3/C(=N/C2=O)Nc2ccc(CN4CCN(C(=O)C5CN(c6cc(F)c([C@H]7CCC(=O)NC7=O)c(F)c6)CC5(C)C)CC4)cc23)C1` (stereo partly drawn) [Example 4, (R)-3-(4-((S)-4-(4-(((7^1s,7^3R,E)-1^1,2^6-dimethyl-3-oxo-5^2,5^3-dihydro-1^1H,5^1H-9-oxa-4-aza-5(2,1)-benzo[d]imidazola-2(2,4)-pyridina-1(4,5)-pyrazola-7(1,3)-cyclobutanacyclononaphane-5^6-yl)methyl)piperazine-1-carbonyl)-3,3-dimethylpyrrolidin-1-yl)-2,6-difluorophenyl)piperidine-2,6-dione], for which the “Degradation H1975 # 25-LTC” value in assay [1] is given as 86.6. In addition, the “Degradation H1975 # 28 DTC” value in assay [2] stood at 84.6.
The corresponding values for `Cc1cc2cc(n1)-c1cnn(C)c1OC[C@H]1C[C@@H](CN3/C(=N/C2=O)Nc2ccc(N4CCN(C5CCN(c6cc(F)c([C@H]7CCC(=O)NC7=O)c(F)c6)CC5)C[C@H]4C)cc23)C1` [Example 18, (R)-3-(4-(4-((R)-4-((7^1s,7^3S,E)-1^1,2^6-dimethyl-3-oxo-5^2,5^3-dihydro-1^1H,5^1H-9-oxa-4-aza-5(2,1)-benzo[d]imidazola-2(2,4)-pyridina-1(4,5)-pyrazola-7(1,3)-cyclobutanacyclononaphane-5^6-yl)-3-methylpiperazin-1-yl)piperidin-1-yl)-2,6-difluorophenyl)piperidine-2,6-dione] are 88.6 and 88.4.
The corresponding values for `Cc1cc2cc(n1)-c1cnn(C)c1OC[C@H]1C[C@@H](CN3/C(=N/C2=O)Nc2ccc(N4CCN(C5CCN(c6ccc(C7CCC(=O)NC7=O)nc6C)CC5)CC4=O)cc23)C1` (stereo partly shown) [Example 22, 3-(5-(4-(4-((7^1s,7^3s,E)-1^1,2^6-dimethyl-3-oxo-5^2,5^3-dihydro-1^1H,5^1H-9-oxa-4-aza-5(2,1)-benzo[d]imidazola-2(2,4)-pyridina-1(4,5)-pyrazola-7(1,3)-cyclobutanacyclononaphane-5^6-yl)-3-oxopiperazin-1-yl)piperidin-1-yl)-6-methylpyridin-2-yl)piperidine-2,6-dione] are 91.7 and 89.5.
The corresponding values for `Cc1cc2cc(n1)-c1cnn(C)c1OC[C@H]1C[C@@H](CN3/C(=N/C2=O)Nc2ccc(N4CCC(N5CCN(c6ccc(C7CCC(=O)NC7=O)nc6C)CC5)CC4)cc23)C1` (stereo partly shown) [Example 28, 3-(5-(4-(1-((7^1s,7^3s,E)-1^1,2^6-dimethyl-3-oxo-5^2,5^3-dihydro-1^1H,5^1H-9-oxa-4-aza-5(2,1)-benzo[d]imidazola-2(2,4)-pyridina-1(4,5)-pyrazola-7(1,3)-cyclobutanacyclononaphane-5^6-yl)piperidin-4-yl)piperazin-1-yl)-6-methylpyridin-2-yl)piperidine-2,6-dione] are 92.1 and 79.8.
